# Laboratory results reported in the supplement of paper PMC3493320.
# pIC50: −log10 of the molar value.
# Tested on: NCI-H295R
# Test: IC50 (antiproliferative, ATP content)
# Settings: 48 h
# How it was run: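 Compounds were pin-transferred at 8 final concentrations between 0.6 nM and 46 µM onto adrenocortical carcinoma cells (1500 per well, 1536-well plates) that had been cultured overnight in serum-free DMEM with ITS. Plates then stood 48 h at 37 °C, 5% CO2, and ATP was detected by CellTiter-Glo luminescence. IC50 was derived from logistic fits of normalised signal, and compounds giving no concentration response were noted as above the top dose.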
row,SMILES,pIC50
1,O=C2N1[C@]([C@@]([H])2NC(C3=C(C)ON=C3C(C(Cl)=CC=C4)=C4F)=O)([H])SC(C)(C)[C@@H]1[C@@]([O-])=O.[Na+],< 4.34
2,CO/N=C(\C(=O)N[C@@H]1C(=O)N2C(C(=O)O)=C(CSc3cnns3)CS[C@H]12)c1csc(N)n1.Cl,< 4.34
3,CCC1(c2ccccc2)C(=O)NC(=O)NC1=O,< 4.34
4,Cc1ccc(S(=O)(=O)[O-])cc1C.[Na+],< 4.34
5,NC(=O)OCC(COC(N)=O)c1ccccc1,< 4.34
6,CON=C(C(=O)N[C@@H]1C(=O)N2C(C(=O)[O-])=C(CSc3nc(C)c(CC(=O)[O-])s3)CS[C@H]12)c1csc(N)n1.[Na+].[Na+],< 4.34
7,C#CCOC(C(=O)OCCN(C)C)(c1ccccc1)c1ccccc1.Cl,< 4.34
8,COCC(=O)N(c1c(C)cccc1C)C(C)C(=O)OC (centres undefined),< 4.34
9,CN[C@@H]1[C@H](O)[C@H](NC)[C@H]2O[C@@]3(O)C(=O)C[C@@H](C)O[C@H]3O[C@@H]2[C@H]1O.Cl.Cl,< 4.34
10,O=C1C(C(O)=CC(O)=C2)=C2O[C@H]([C@](C=C5)=CC3=C5O[C@H](CO)[C@@H]([C@]4=CC(OC)=C(O)C=C4)O3)[C@H]1O,< 4.34
11,Cn1nnc2c(C(N)=O)ncn2c1=O,< 4.34
12,O=C1[C@H](CC[C@@H](C4=CC=C(F)C=C4)O)[C@@H]([C@]3=CC=C(O)C=C3)N1C2=CC=C(F)C=C2,< 4.34
13,Cl.OC(CCN1CCCCC1)(c1ccccc1)C1CCCCC1 (centres undefined),< 4.34
14,Clc1ccccc1CN1CCc2sccc2C1,< 4.34
15,CCCCOC(=O)c1ccc(N)cc1,< 4.34
16,O[C@@H]1CO[C@H]2[C@@H]1OC[C@@H]2O,< 4.34
17,Cc1ccc(S(=O)(=O)N[C@H](CCCCN)C(=O)CCl)cc1.Cl,< 4.34
18,CC1(C)Oc2ccc(C#N)cc2[C@@H](N2CCCC2=O)[C@@H]1O,< 4.34
19,CCN(CC)C(=O)c1cccnc1,< 4.34
20,CCCCCCCCCCCCSCCOCCO,< 4.34
21,OC[C@H]1O[C@@H]2O[C@H]3[C@H](O)[C@@H](O)[C@@H](O[C@H]4[C@H](O)[C@@H](O)[C@@H](O[C@H]5[C@H](O)[C@@H](O)[C@@H](O[C@H]6[C@H](O)[C@@H](O)[C@@H](O[C@H]7[C@H](O)[C@@H](O)[C@@H](O[C@H]1[C@H](O)[C@H]2O)O[C@@H]7CO)O[C@@H]6CO)O[C@@H]5CO)O[C@@H]4CO)O[C@@H]3CO,< 4.34
22,CCCCOc1ccc(OCCCN2CCOCC2)cc1.Cl,< 4.34
23,N[C@H](C(=O)O)[C@@H](O)c1ccc(O)c(O)c1,< 4.34

row,SMILES,pIC50
1,CCOc1cc(OCC)c(C(=O)CCC(=O)O)cc1OCC,< 4.34
2,CC(C)CN(C[C@@H](O)[C@H](Cc1ccccc1)NC(=O)O[C@H]1CO[C@H]2OCC[C@H]21)S(=O)(=O)c1ccc(N)cc1,< 4.34
3,O=C([O-])c1cc(=O)c2c(OCC(O)COc3cccc4oc(C(=O)[O-])cc(=O)c34)cccc2o1.[Na+].[Na+],< 4.34
4,C[n+]1ccccc1C=NO.[Cl-],< 4.34
5,COCCc1ccc(OCC(O)CNC(C)C)cc1.COCCc1ccc(OCC(O)CNC(C)C)cc1.O=C(O)[C@H](O)[C@@H](O)C(=O)O (centres undefined),< 4.34
6,O=C(C)O[C@@H]([C@H]4[N@@+]6(CCCCC6)C)[C@](CC5)(C)[C@](C4)([H])[C@@]3([H])[C@@]5([H])[C@@]2(C)C[C@@H]([C@@H](OC(C)=O)C[C@@]([H])2CC3)N1CCCCC1.[Br-],< 4.34
7,CN1C(=O)CN=C(c2ccccc2)c2cc([N+](=O)[O-])ccc21,< 4.34
8,C[C@@H](O)[C@H]1C(=O)N2C(C(=O)O)=C(S[C@@H]3CN[C@H](C(=O)N(C)C)C3)[C@H](C)[C@H]12,< 4.34
9,CCN(CC)CCOC(=O)C(O)(c1ccccc1)c1ccccc1,< 4.34
10,CC(C)(C)NCC(O)COc1cccc2c1CCC(=O)N2.Cl (centres undefined),< 4.34
11,CN(N=O)C(=O)N[C@@H]1[C@@H](O)[C@H](O)[C@@H](CO)O[C@@H]1O,< 4.34
12,CCCCC(O)c1ccccc1 (centres undefined),< 4.34
13,O[C@H]1[C@H](O)[C@@H](O)[C@H](O)[C@@H](O)[C@H]1O,< 4.34
14,CC(=O)NCCCCCC(=O)O,< 4.34
15,O=C([O-])CN(CCN(CC(=O)[O-])CC(=O)[O-])CC(=O)[O-].[Fe+3].[Na+],< 4.34
16,COCC(=O)Nc1c(I)c(C(=O)NCC(O)CO)c(I)c(C(=O)N(C)CC(O)CO)c1I (centres undefined),< 4.34
17,COc1ccc(CCN(C)CCCN2CCc3cc(OC)c(OC)cc3CC2=O)cc1OC.Cl,< 4.34
18,CC(=C(CCO)SSC(CCO)=C(C)N(C=O)Cc1cnc(C)nc1N)N(C=O)Cc1cnc(C)nc1N,< 4.34
19,C[C@]12CC[C@@H]3c4ccc(O)cc4CC[C@H]3[C@@H]1C[C@@H](O)[C@H]2O,< 4.34
20,CC(C)(C)C(=O)NCCCC(=O)O,< 4.34
21,NC(=O)NO,< 4.34
22,CC(=O)Oc1ccccc1C(=O)O,< 4.34
23,CCN(CC)C(=O)Nc1ccc(OCC(O)CNC(C)(C)C)c(C(C)=O)c1.Cl (centres undefined),< 4.34

row,SMILES,pIC50
1,CC(C)[C@@H](N)C(=O)O,< 4.34
2,CCOC(=O)CC(SP(=S)(OC)OC)C(=O)OCC (centres undefined),< 4.34
3,c1ccc2c(c1)Nc1ccccc1S2,< 4.34
4,CC(=O)N[C@H]1[C@@H](O[C@@H]2C(C(=O)[O-])C[C@@H](O[C@H]3[C@H](C)[C@@H](NS(=O)(=O)O)[C@@H](OC4C(C(=O)[O-])O[C@@H](OC5[C@H]6CO[C@H](O6)[C@H](NS(=O)(=O)[O-])[C@H]5O)[C@H](O)[C@H]4O)O[C@@H]3COS(=O)(=O)O)[C@H](O)[C@H]2O)O[C@H](COS(=O)(=O)O)[C@@H](O[C@@H]2OC(C(=O)[O-])=C[C@H](O)[C@H]2OS(=O)(=O)O)[C@@H]1O.[Na+].[Na+].[Na+].[Na+] (some centres undefined),< 4.34
5,O[C@]([C@@H]1CSCN1)=O,< 4.34
6,CC(C)NCC(O)COc1ccccc1-n1cccc1 (centres undefined),< 4.34
7,CN1[C@@H]2CC[C@@H]1CC(OC1c3ccccc3CCc3ccccc31)C2.O=C(O)CC(O)(CC(=O)O)C(=O)O (some centres undefined),< 4.34
8,O=C1NC(=O)[C@H]2[C@@H]1[C@@H]1C=C[C@H]2C1,< 4.34
9,CCCCCCOc1ccccc1C(N)=O,< 4.34
10,C(=Cc1ccccc1)CN1CCN(C(c2ccccc2)c2ccccc2)CC1,< 4.34
11,COc1ccc(O)cc1,< 4.34
12,CC(C)=CCC/C(C)=C/C=C/C(C)=C/C=C/C(C)=C/C=C/C=C(C)/C=C/C=C(C)/C=C/C=C(\C)CCC=C(C)C,< 4.34
13,NCC1(CC(=O)O)CCCCC1,< 4.34
14,COc1ccc(NS(=O)(=O)c2ccc(N)cc2)nn1,< 4.34
15,CN1CCC(O)(c2ccc(F)cc2)C(C(=O)c2ccc(F)cc2)C1 (centres undefined),< 4.34
16,Cc1cc(O)cc(C)c1Cl,< 4.34
17,CCON=O,< 4.34
18,O=C1C(=Cc2cccs2)CCCC1=Cc1cccs1,< 4.34
19,CC(=O)Nc1ccccc1,< 4.34
20,C=CC(N)CCC(=O)O (centres undefined),< 4.34
21,CC(C)(Oc1ccc(CCNC(=O)c2ccc(Cl)cc2)cc1)C(=O)O,< 4.34
22,Cc1cn([C@H]2C[C@H](N=[N+]=[N-])[C@@H](CO)O2)c(=O)[nH]c1=O,< 4.34
23,Cl.F/C(COc1ccc2c(c1)[nH]c1ccccc12)=C1\CN2CCC1CC2,< 4.34
